In assay [1] the target is T1, glucocorticoid receptor (GR) (Homo sapiens, UniProt P04150).
T1 sequence (P04150 1-777): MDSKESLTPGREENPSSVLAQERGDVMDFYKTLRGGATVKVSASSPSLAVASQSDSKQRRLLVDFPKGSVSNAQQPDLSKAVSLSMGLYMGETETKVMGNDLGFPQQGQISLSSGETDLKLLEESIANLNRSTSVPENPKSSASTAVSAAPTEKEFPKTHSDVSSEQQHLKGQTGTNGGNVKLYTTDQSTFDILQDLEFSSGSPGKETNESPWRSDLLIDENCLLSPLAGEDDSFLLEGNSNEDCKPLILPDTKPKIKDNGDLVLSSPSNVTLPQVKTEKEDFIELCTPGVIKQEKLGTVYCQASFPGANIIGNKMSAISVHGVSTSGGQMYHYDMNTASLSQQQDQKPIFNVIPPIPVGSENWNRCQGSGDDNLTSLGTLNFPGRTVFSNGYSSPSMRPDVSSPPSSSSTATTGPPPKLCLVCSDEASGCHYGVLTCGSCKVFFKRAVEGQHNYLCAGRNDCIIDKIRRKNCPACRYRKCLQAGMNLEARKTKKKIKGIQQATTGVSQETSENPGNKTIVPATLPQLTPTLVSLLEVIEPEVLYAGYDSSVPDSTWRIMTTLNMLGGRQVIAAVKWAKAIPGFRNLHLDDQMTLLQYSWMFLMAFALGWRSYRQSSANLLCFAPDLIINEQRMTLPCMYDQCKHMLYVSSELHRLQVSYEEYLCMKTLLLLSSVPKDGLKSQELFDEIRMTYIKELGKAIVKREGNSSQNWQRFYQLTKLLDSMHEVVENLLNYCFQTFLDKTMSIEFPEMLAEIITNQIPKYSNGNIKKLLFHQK
Briefly: Ligand binding assay (GR BIND), 3H-dexamethasone displacement in MDA-MB-453 cell lysate.

The next assay addresses T2, human GR (Homo sapiens, UniProt P04150).
T2 construct: U937 cells contain an endogenous glucocorticoid receptor (GR); endogenous in cells; host or cells: U937 cells stably transfected with the TNF-alpha promoter/beta-lactamase reporter
T2 sequence (P04150 1-777): T1 sequence (P04150 1-777)
Briefly: Transrepression Assay (GITAR), TNFα-β-lactamase reporter gene in U937 cells. It counts as cell-based. Conditions: for pEC50: inflection point, read-out: Transrepression U937 Cells GITAR IP; for pEC50 / Transrepression U937 Cells GITAR Emax: U937 cells. The essentials:
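Repression of PMA (5 ng/ml final)/LPS (100 ng/ml final)-induced TNF-α promoter activity, read as β-lactamase cleavage of CCF2-AM, in stably transfected U937 cells expressing native GR. Compound added 30-45 min before stimulation, overnight (~18 hr) 37° C; normalized to 100 nM dexamethasone (100%).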
On the technique in general: In a reporter assay the amount or activity of a reporter protein is the signal.

The target in a further assay is T3, Glucocorticoid Receptor (Homo sapiens, UniProt P04150).
T3 construct: These cells express large amount of the GR and are very responsive to GC treatment; endogenous in cells; host or cells: A549 cells transiently transfected with the MMTV-LUC reporter
T3 sequence (P04150 1-777): T1 sequence (P04150 1-777)
Briefly: Trans-Activation Modulation of Glucocorticoid Receptor (GRAMMER), MMTV-LUC reporter gene in A549 cells. It counts as cell-based. Particulars: for Emax: A549, A549 cells, read-out: Transactivation A549 Cells GRAMMER Emax; for Emax / Transactivation A549 Cells GRAMMER Emax: Emax relative to 300 nM dexamethasone; for pEC50: inflection point, read-out: Transactivation A549 Cells GRAMMER IP; for pEC50 / Transactivation A549 Cells GRAMMER Emax: A549 cells. The essentials:
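Luciferase from a transiently transfected MMTV-LUC reporter was measured after 24 h compound exposure (≤1% DMSO) in A549 or MDA-MB-453 cells. For antagonism, the decrease of 10 nM dexamethasone-induced signal was calculated. For agonism, Emax was referenced to 300 nM dexamethasone.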

[2] abbreviates: GITAR Emax minus GRAMMER Emax, Table 1.
The mark [3] stands for this setting: U-937, U937 cells, activity repressed by 100 nM dexamethasone = 100%, Table 1, read-out: Transrepression U937 Cells GITAR Emax.
Where [4] appears, read: U-937, text statement, 100 nM dexamethasone = 100%, read-out: maximal activity in the transrepression assay (GITAR).
Where [5] appears, read: activity repressed by 100 nM dexamethasone = 100%, Table 1.
Setting [6] is: compounds in the art (WO03/086294).

pEC50, pKi: −log10 of the molar value. Where two headings read alike, the source gives them in different places. Where only a bound is given, the exact number is not on record here.

We go through twelve compounds from US8338472B2, “Hexahydrocyclopentyl[F]indazole carboxamides and derivatives thereof as selective glucocorticoid receptor modulators” (Merck Sharp & Dohme Corp., priority 2008, dated 2012).

In turn, `COc1ccccc1CCN(CC(O)CC(F)(F)F)C(=O)[C@H]1CCC2=Cc3c(cnn3-c3ccc(F)cc3)C[C@@]21C` (stereo partly drawn) [Compound 86, (4αR,5S)-1-(4-fluorophenyl)-N-[2-(2-methoxyphenyl)ethyl]-4α-methyl-N-(4,4,4-trifluoro-2-hydroxybutyl)-1,4,4α,5 ,6,7-hexahydrocyclopenta[f]indazole-5-carboxamide] showed a pKi in assay [1] (GR BIND Ki, Table 1) of 7.94. Also, the “GITAR Greater than by GRAMMER % SEP” value at human GR (setting [2]) came out at 35.1%. Moreover, the figures for the Emax at human GR (setting [3]), on human GR (setting [4]) and at Glucocorticoid Receptor (Table 1) were 53.9%, greater than 5% and 18.8%, respectively. In addition, the pEC50 at human GR (Table 1) was 6.06; at Glucocorticoid Receptor (Table 1), 6.39.

With `C[C@]12Cc3cnn(-c4ccc(F)cc4)c3C=C1CC[C@@H]2C(=O)N(CCc1ccccc1F)CC(O)CC(F)(F)F` (stereo partly drawn) [Compound 87, (4αR,5S)-1-(4-fluorophenyl)-N-[2-(2-fluorophenyl)ethyl]-4α-methyl-N-(4,4,4-trifluoro-2-hydroxybutyl)-1,4,4α,5,6,7-hexahydrocyclopenta[f]indazole-5-carboxamide], in assay [1] (GR BIND Ki, Table 1), the pKi was 9.10. Further, at human GR (setting [2]), the “GITAR Greater than by GRAMMER % SEP” value is 23.1%. The “Transrepression U937 Cells GITAR Emax” value on human GR (setting [5]) worked out at 61.1%. In addition, the Emax on human GR (setting [4]) is greater than 5%. Further, the values for the pEC50 at human GR (Table 1) and on Glucocorticoid Receptor (Table 1) were 6.63 and 6.54, respectively. Moreover, on Glucocorticoid Receptor (Table 1), the “Transactivation A549 Cells GRAMMER Emax” value is 38.0%.

Compound `CCCN(CCC(F)(F)F)C(=O)[C@H]1CCC2=Cc3c(cnn3-c3ccc(F)cc3)C[C@@]21C` [Compound 88, (4αR,5S)-1-(4-fluorophenyl)-4α-methyl-N-propyl-N-(3,3,3-trifluoropropyl)-1,4,4α,5,6,7-hexahydrocyclopenta[f]indazole-5-carboxamide] gave a pKi in assay [1] (GR BIND Ki, Table 1) of 8.66. For the same compound, the “GITAR Greater than by GRAMMER % SEP” value on human GR (setting [2]) came to 5.9%. For the same compound, the Emax at human GR (setting [3]) was 73.9%; at human GR (setting [4]), greater than 5%; at Glucocorticoid Receptor (Table 1) it was 68%. In addition, the pEC50 was 6.63 at human GR (Table 1) and 6.43 on Glucocorticoid Receptor (Table 1).

As to `CO[C@H](C)CN(C)C(=O)[C@H]1CCC2=Cc3c(cnn3-c3ccc(F)cc3)C[C@@]21C` [Compound 89, (4αR,5S)-1-(4-fluorophenyl)-N-[(2R)-2-methoxypropyl]-N,4α-dimethyl-1,4,4α,5,6,7-hexahydrocyclopenta[f]indazole-5-carboxamide], the pKi in assay [1] (GR BIND Ki, Table 1) was 6.92. In addition, the “GITAR Greater than by GRAMMER % SEP” value on human GR (setting [2]) is recorded as 6.5%. The Emax at human GR (setting [3]) was 10.2%; on human GR (setting [4]) it was greater than 5%; at Glucocorticoid Receptor (Table 1), 3.7%. Further, the values for the pEC50 on human GR (Table 1) and at Glucocorticoid Receptor (Table 1) were 5.46 and 6.31, respectively.

The compound `CN(CCC(F)(F)F)C(=O)[C@H]1CCC2=Cc3c(cnn3-c3ccc(F)cc3)C[C@@]21C` [Compound 90, (4αR,5S)-1-(4-fluorophenyl)-N,4α-dimethyl-N-(3,3,3-trifluoropropyl)-1,4,4α,5,6,7-hexahydrocyclopenta[f]indazole-5-carboxamide] gave a pKi in assay [1] (GR BIND Ki, Table 1) of 7.76. The “GITAR Greater than by GRAMMER % SEP” value on human GR (setting [2]) is 24.2%. Further, the values for the Emax on human GR (setting [3]), on human GR (setting [4]) and on Glucocorticoid Receptor (Table 1) were 44.5%, greater than 5% and 20.3%, respectively. In addition, the pEC50 at human GR (Table 1) was 6.22; at Glucocorticoid Receptor (Table 1) it was 6.25.

Consider `CCN(CCC(F)(F)F)C(=O)[C@H]1CCC2=Cc3c(cnn3-c3ccc(F)cc3)C[C@@]21C` [Compound 91, (4αR,5S)-N-ethyl-1-(4-fluorophenyl)-4α-methyl-N-(3,3,3-trifluoropropyl)-1,4,4α,5,6,7-hexahydrocyclopenta[f]indazole-5-carboxamide], for which the pKi in assay [1] (GR BIND Ki, Table 1) is 8.35. Also, the “GITAR Greater than by GRAMMER % SEP” value on human GR (setting [2]) is 30.6%. The results for the Emax on human GR (setting [3]), at human GR (setting [4]) and on Glucocorticoid Receptor (Table 1) were 75.1%, greater than 5% and 44.5%, respectively. For the same compound, the pEC50 is 6.48 at human GR (Table 1) and 6.51 on Glucocorticoid Receptor (Table 1).

With `C[C@]12Cc3cnn(-c4ccc(F)cc4)c3C=C1CC[C@@H]2C(=O)N(CCc1ccccc1F)CC(O)C(F)(F)F` (stereo partly drawn) [Compound 92, (4αR,5S)-1-(4-fluorophenyl)-N-[2-(2-fluorophenyl)ethyl]-4α-methyl-N(3,3,3-trifluoro-2-hydroxypropyl)-1,4,4α,5,6,7-hexahydrocyclopenta[f]indazole-5-carboxamide], in assay [1] (GR BIND Ki, Table 1), the pKi was 8.82. At human GR (setting [2]), the “GITAR Greater than by GRAMMER % SEP” value was 4.7%. Besides, the “Transrepression U937 Cells GITAR Emax” value on human GR (setting [5]) amounted to 44.9%. Further, the pEC50 at human GR (Table 1) was 6.84. Further, on Glucocorticoid Receptor (Table 1), the “Transactivation A549 Cells GRAMMER Emax” value amounted to 40.2% and the pEC50 was 6.55.

Consider `C[C@]12Cc3cnn(-c4ccc(F)cc4)c3C=C1CC[C@@H]2C(=O)N(CCc1ccccc1F)CC(O)C(F)(F)F` (stereo partly drawn) [Compound 93, (4αR,5S)-1-(4-fluorophenyl)-N-[2-(2-fluorophenyl)ethyl]-4α-methyl-N-(3,3,3-trifluoro-2-hydroxypropyl)-1,4,4α,5,6,7-hexahydrocyclopenta[f]indazole-5-carboxamide], for which the pKi in assay [1] (GR BIND Ki, Table 1) is 8.96. Moreover, the “GITAR Greater than by GRAMMER % SEP” value on human GR (setting [2]) was determined as 5.9%. Moreover, the “Transrepression U937 Cells GITAR Emax” value at human GR (setting [5]) turned out to be 67.5%. The pEC50 at human GR (Table 1) is 6.76. On Glucocorticoid Receptor (Table 1), the “Transactivation A549 Cells GRAMMER Emax” value came out at 61.7% and the pEC50 is 6.56.

In assay [1] (GR BIND Ki, Table 1), `C[C@]12Cc3cnn(-c4ccc(F)cc4)c3C=C1CC[C@@H]2C(=O)N(CCc1ccccc1F)CC(O)CC(F)(F)F` (stereo partly drawn) [Compound 94, (4αR,5S)-l-(4-fluorophenyl)-N-[2-(2-fluorophenyl)ethyl]-4α-methyl-N-(4,4,4-trifluoro-2-hydroxybutyl)-1,4,4α,5,6,7-hexahydrocyclopenta[f]indazole-5-carboxamide] showed a pKi of 8.74. The “GITAR Greater than by GRAMMER % SEP” value on human GR (setting [2]) turned out to be 8.0%. Also, the Emax on human GR (setting [3]) turned out to be 51.8%; at Glucocorticoid Receptor (Table 1), 43.8%. The pEC50 at human GR (Table 1) was 6.27; on Glucocorticoid Receptor (Table 1) it was 6.44.

For `C[C@]12Cc3cnn(-c4ccc(F)cc4)c3C=C1CC[C@@H]2C(=O)N(CCc1ccccc1F)CC(O)CC(F)(F)F` (stereo partly drawn) [Compound 95, (4αR,5S)-1-(4-fluorophenyl)-N-[2-(2-fluorophenyl)ethyl]-4α-methyl-N-(4,4,4-trifluoro-2-hydroxybutyl)-1,4,4α,5,6,7-hexahydrocyclopenta[f]indazole-5-carboxamide], the pKi in assay [1] (GR BIND Ki, Table 1) is 9.00. Also, the “GITAR Greater than by GRAMMER % SEP” value at human GR (setting [2]) is listed as 7.3%. In addition, the “Transrepression U937 Cells GITAR Emax” value at human GR (setting [5]) worked out at 54.2%. In addition, the pEC50 at human GR (Table 1) is 6.55. In addition, at Glucocorticoid Receptor (Table 1), the “Transactivation A549 Cells GRAMMER Emax” value was found to be 46.9% and the pEC50 was 6.43.

For the compound `C[C@]12Cc3cnn(-c4ccc(F)cc4)c3C=C1CC[C@@H]2C(=O)NCc1ccccc1` [reference compound], the pKi in assay [1] (GR BIND Ki, compounds in the art (WO03/086294)) was 7.68. On human GR (GITAR Emax minus GRAMMER Emax, compounds in the art), the “GITAR > GRAMM % SEP” value is -59.6%. In addition, the Emax on human GR (U-937, U937 cells, activity repressed by 100 nM dexamethasone = 100%, compounds in the art, read-out: Transrepression U937 Cells GITAR Emax) came out at 43.8%; at Glucocorticoid Receptor (compounds in the art), 103%. The results for the pEC50 on human GR (setting [6]) and on Glucocorticoid Receptor (setting [6]) were 5.37 and 6.30, respectively.

As for “(4αR,5S)-N,N-dibutyl-1-(4-fluorophenyl)- 4α-methyl-1,4,4α,5,6,7- hexahydrocyclopenta[f]indazole-5- carboxamide [Compound 9]”, the pKi in assay [1] (read-out: GR BIND Ki, Table 1) was 9.00. The “GITAR Greater than by GRAMMER % SEP” value on human GR (setting [2]) is given as 15.9%. Moreover, the “Transrepression U937 Cells GITAR Emax” value on human GR (setting [5]) worked out at 54.4%. Moreover, the pEC50 on human GR (Table 1) was 6.30. Also, at Glucocorticoid Receptor (Table 1), the “Transactivation A549 Cells GRAMMER Emax” value stood at 38.5% and the pEC50 is 6.44.

By pKi is commonly meant the Ki on a negative log10 scale, so that one unit is a factor of ten.
